In patent US7119073B2, “Peptides and their use as inhibitors of hepatitis C virus ns3 protease” (Istituto Di Ricerche Di Biologia Molecolare P. Angeletti SpA, priority 2001, dated 2006):
Where two headings read alike, the source gives them in different places.

Tests used:
[1] = target: T1, full length NS3 protein noncovalently complexed with the full-length NS4A cofactor protein (NS3/NS4A complex) (Hepatitis C virus genotype 1b, UniProt P26663); experiment: Full-length NS3-NS4A heterodimer protein assay (Assay A); format: biochemical, hepatitis C virus (HCV)
T1 construct: full length NS3 protein spanning residues 1027–1657 of the HCV polyprotein
T1 sequence (P26663 1027-1657): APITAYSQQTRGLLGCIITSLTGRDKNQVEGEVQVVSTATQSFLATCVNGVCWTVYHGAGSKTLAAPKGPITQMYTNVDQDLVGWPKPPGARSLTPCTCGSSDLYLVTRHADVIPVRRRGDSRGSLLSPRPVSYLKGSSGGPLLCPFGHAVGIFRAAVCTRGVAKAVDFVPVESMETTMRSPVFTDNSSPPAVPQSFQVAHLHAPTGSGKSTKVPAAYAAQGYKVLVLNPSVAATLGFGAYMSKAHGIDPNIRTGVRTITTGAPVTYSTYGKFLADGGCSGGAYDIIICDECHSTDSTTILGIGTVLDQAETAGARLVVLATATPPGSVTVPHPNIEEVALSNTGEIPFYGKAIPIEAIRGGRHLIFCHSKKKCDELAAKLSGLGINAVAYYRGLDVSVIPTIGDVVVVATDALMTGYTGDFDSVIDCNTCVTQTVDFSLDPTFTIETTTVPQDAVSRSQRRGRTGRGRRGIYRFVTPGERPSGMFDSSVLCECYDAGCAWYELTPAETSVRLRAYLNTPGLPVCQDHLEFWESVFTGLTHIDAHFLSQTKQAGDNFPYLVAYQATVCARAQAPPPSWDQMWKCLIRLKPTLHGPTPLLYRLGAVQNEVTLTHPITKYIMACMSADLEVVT
T1 sequence (P26663 1658-1711): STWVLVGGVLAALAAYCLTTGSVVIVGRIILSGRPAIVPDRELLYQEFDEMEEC
Experimental: Full-Length NS3-NS4A Heterodimer Protein Assay (Assay A)
(Gallinari, P., Paolini, C., Brennan, D., Nardi, C., Steinkühler, C. and De Francesco, R. Modulation of hepatitis C virus NS3 protease and helicase activities through the interaction with NS4A. Biochemistry 38, 5620–5632, 1999)
In this assay the full length NS3 protein spanning residues 1027–1657 of the HCV polyprotein, noncovalently complexed with the full-length NS4A cofactor protein (residues 1658–1711) was used. Assays were performed in 60 μl of a buffer containing 50 mM Hepes pH 7.5, 0.15 M NaCl, 0.1% (v/v) Triton X-100, 15% (v/v) glycerol, 10 mM DTT, 2 nM NS3/NS4A complex. To this assay mix 10 μM (final concentration) of a peptide substrate corresponding to the NS5AB cleavage site and having the sequence of the NS5A-NS5B peptide, were added. Incubation times at 23° C. were adjusted to obtain <10% conversion. Reactions were stopped by the addition of 40 μl of 1% TFA. Cleavage was determined by HPLC using a Merck-Hitachi chromatograph equipped with an autosampler. 80 μl samples were injected on a Lichrospher C18 reversed phase cartridge column (4×74 mm, 5 μm, Merck) and fragments were separated using a 10–40% acetonitrile gradient at 5%/min using a flow rate of 2.5 ml/min. Peak detection was done by monitoring both the absorbance at 220 nm and tryptophan fluorescence (λex=280 nm, λem=350 nm). Cleavage products were quantitated by integration of chromatograms with respect to appropriate standards. Kinetic parameters were calculated from nonlinear least-squares fit of initial rates as a function of substrate concentration with the help of a Kaleidagraph software, assuming Michaelis-Menten kinetics.
Ki values of peptide inhibitors were calculated from substrate titration experiments performed in the presence of increasing amounts of inhibitor. Experimental data sets were simultaneously fitted to eg.1 using a multicurve fit macro with the help of a Sigmaplot software: V=(VmaxS)/(Km([…])+S); (eq.1) Alternatively, Ki values were derived from IC50 values, calculated using a four-parameter logistic function, according to eq.2: IC50=(1+S/Km)Ki (eq.2)

[2] = target: T2, NS3 protease domain complexed to a modified form of the NS4A peptide (Pep4AK) (Hepatitis C virus genotype 1b, UniProt P26663); experiment: HCV NS3 protease domain/NS4A cofactor peptide assay (Assay B); format: biochemical
T2 construct: NS3 protease domain (residues 1027–1206 of the HCV polyprotein)
T2 sequence (P26663 1027-1206, other chains not shown): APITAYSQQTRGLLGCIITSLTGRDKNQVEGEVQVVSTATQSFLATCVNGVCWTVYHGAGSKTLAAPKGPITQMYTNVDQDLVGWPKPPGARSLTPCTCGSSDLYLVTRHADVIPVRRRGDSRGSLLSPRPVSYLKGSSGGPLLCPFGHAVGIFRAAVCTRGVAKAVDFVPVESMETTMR

[3] = Table 5, full-length NS3/NS4A, read-out: AssayA
[4] = Table 1, NS3 protease domain/Pep4AK, 4AB peptide substrate, read-out: Assay B

Row | Compound | IC50 [1, 3] [µM] | other results
1 | CC(C)COC(=O)N[C@H](C(=O)N1C[C@H](c2ccccc2)C[C@H]1C(=O)N[C@@H](CC(F)F)C(=O)NCCc1cccc(OC(C(=O)O)c2ccc(Br)cc2)c1)C(C)C (mixture of isomers) [Compound 570] | < 1 | 
2 | COCCOCO[C@@H]1C[C@@H](C(=O)N[C@@H](CC(F)F)C(=O)NCCc2c(F)cc(C(=O)O)cc2F)N(C(=O)[C@@H](NC(=O)OCC(C)C)C(C)C)C1 [Compound 505] | < 10 | 
3 | CC(C)COC(=O)N[C@@H](CCC(=O)O)C(=O)N1C[C@H](c2ccccc2)C[C@H]1C(=O)N[C@@H](CS)C(=O)NCCc1ccc(C(=O)O)cc1Cl [Compound 520] | < 10 | 
4 | CC(C)COC(=O)N[C@H](C(=O)N1C[C@H](c2ccccc2)C[C@H]1C(=O)N[C@@H](CC(F)F)C(=O)NCCc1ccc(C(=O)O)cc1)C(C)C [Compound 517] | < 10 | 
5 | CC(C)COC(=O)N[C@H](C(=O)N1C[C@H](C2CCCCC2)C[C@H]1C(=O)N[C@@H](CC(F)F)C(=O)NCCc1ccc(C(=O)O)cc1Cl)C(C)C [Compound 532] | < 1 | 
6 | CCC[S+]([O-])[C@@H]1C[C@@H](C(=O)N[C@@H](CC(F)F)C(=O)NCCc2c(F)cc(C(=O)O)cc2F)N(C(=O)[C@@H](NC(=O)OCC(C)C)C(C)C)C1 (stereo partly shown) [Compound 549] | < 10 | 
7 | CC(C)COC(=O)N[C@@H](CCC(=O)O)C(=O)N1C[C@H](c2ccccc2)C[C@H]1C(=O)N[C@@H](CC(F)F)C(=O)NCCC1=CCCCC1 [Compound 511] | < 100 | 
8 | CC(Oc1ccc(F)c(CCNC(=O)[C@H](CC(F)F)NC(=O)[C@@H]2C[C@@H](C3CCCCC3)CN2C(=O)[C@@H](NC(=O)OCC(C)(C)C)C(C)C)c1F)C(=O)O (mixture of isomers) [Compound 567] | < 1 | 
9 | CC(C)COC(=O)N[C@H](C(=O)N1C[C@H](c2ccccc2)C[C@H]1C(=O)N[C@@H](CC(F)F)C(=O)NCCc1[nH]c2ccccc2c1CCC(=O)O)C(C)C [Compound 572] | < 100 | 
10 | CC(C)COC(=O)NC(C(=O)N1CCCC1C(=O)NC(CC(F)F)C(=O)NCCc1c(F)cc(C(=O)O)cc1F)C(C)C (stereo not shown) [Compound 502] | < 10 | 
11 | CC(C)COC(=O)N[C@H](C(=O)N1C[C@H](OCc2ccc(C(=O)O)cc2)C[C@H]1C(=O)N[C@@H](CC(F)F)C(=O)NCCc1c(Cl)cccc1Cl)C(C)C [Compound 509] | < 100 | 
12 | CC(C)COC(=O)N[C@H](C(=O)N1C[C@H](C2CCCCC2)C[C@H]1C(=O)N[C@@H](CC(F)F)C(=O)NCCc1c(F)cc(C(=O)O)cc1F)C(C)(C)C [Compound 536] | < 10 | 
13 | CCC(Nc1cccc(CCNC(=O)[C@H](CC(F)F)NC(=O)[C@@H]2C[C@@H](c3ccccc3)CN2C(=O)[C@@H](NC(=O)OCC(C)C)C(C)C)c1)C(=O)O (mixture of isomers) [Compound 563] | < 10 | 
14 | CC[C@H](C)[C@H](NC(=O)OCC(C)C)C(=O)N1C[C@H](c2ccccc2)C[C@H]1C(=O)N[C@@H](CC(F)F)C(=O)NCCc1c(F)cc(C(=O)O)cc1F [Compound 534] | < 10 | 
15 | CC(C)[C@H](NC(=O)OCC1CCCC1)C(=O)N1C[C@H](C2CCCCC2)C[C@H]1C(=O)N[C@@H](CC(F)F)C(=O)NCCc1c(F)cc(C(=O)O)cc1F [Compound 542] | < 10 | 
16 | CCCS(=O)(=O)[C@@H]1C[C@@H](C(=O)N[C@@H](CC(F)F)C(=O)NCCc2c(F)cc(C(=O)O)cc2F)N(C(=O)[C@@H](NC(=O)OCC(C)C)C(C)C)C1 [Compound 550] | < 1 | 
17 | COc1cccc(S[C@@H]2C[C@@H](C(=O)N[C@@H](CC(F)F)C(=O)NCCc3c(F)cc(C(=O)O)cc3F)N(C(=O)[C@@H](NC(=O)OCC(C)C)C(C)C)C2)c1 [Compound 545] | < 1 | 
18 | CC(C)COC(=O)N[C@H](C(=O)N1C[C@H]([S+]([O-])C2CCCCC2)C[C@H]1C(=O)N[C@@H](CC(F)F)C(=O)NCCc1c(F)cc(C(=O)O)cc1F)C(C)C (mixture of isomers) [Compound 552] | < 1 | 
19 | CC(C)[C@H](NC(=O)OC1CCCC1)C(=O)N1C[C@H](C2CCCCC2)C[C@H]1C(=O)N[C@@H](CC(F)F)C(=O)NCCc1c(F)cc(C(=O)O)cc1F [Compound 541] | < 1 | 
20 | CC(C)COC(=O)N[C@H](C(=O)N1C[C@H](c2ccccc2)C[C@H]1C(=O)N[C@@H](CC(F)F)C(=O)NCCc1c[nH]c2ccccc12)C(C)C [Compound 574] | < 100 | 

Row | Compound | IC50 [1, 3] [µM] | other results
21 | CC(C)C[C@H](NC(=O)C1(Cc2ccsc2C(=O)O)Cc2ccccc2N1)C(=O)N[C@@H](CC(F)F)C(=O)NCCc1cc2ccccc2[nH]1 (single isomer, unassigned) [Compound 707a] |  | IC50 ([1]; full-length NS3-NS4A heterodimer protein assay, read-out: Assay A (IC50 class)): < 100 µM
22 | CC(C)COC(=O)N[C@H](C(=O)N1C[C@H](C2CCCCC2)C[C@H]1C(=O)N[C@@H](CC(F)F)C(=O)NCCc1c(F)ccc(OCC(=O)O)c1F)C(C)C [Compound 565] | < 1 | 
23 | CC(C)COC(=O)N[C@H](C(=O)N1C[C@H](C2CCCCC2)C[C@H]1C(=O)N[C@@H](CC(F)F)C(=O)NCCc1c(F)cc(C(=O)NS(C)(=O)=O)cc1F)C(C)C [Compound 557] | < 1 | 
24 | CC(C)COC(=O)N[C@@H](CCC(=O)O)C(=O)N1C[C@H](c2ccccc2)C[C@H]1C(=O)N[C@@H](CC(F)F)C(=O)NCCc1c[nH]c2ccccc12 [Compound 575] | < 100 | 
25 | CC[C@@H](C)[C@H](NC(=O)OCC(C)C)C(=O)N1C[C@H](C2CCCCC2)C[C@H]1C(=O)N[C@@H](CC(F)F)C(=O)NCCc1c(F)cc(C(=O)O)cc1F [Compound 535] | < 1 | 
26 | CC(C)COC(=O)N[C@H](C(=O)N1C[C@H](SCc2ccccc2)C[C@H]1C(=O)N[C@@H](CC(F)F)C(=O)NCCc1c(F)cc(C(=O)O)cc1F)C(C)C [Compound 544] | < 10 | 
27 | CC(C)COC(=O)N[C@H](C(=O)N1C[C@H](c2ccccc2)C[C@H]1C(=O)N[C@@H](CC(F)F)C(=O)NCCc1c(F)cc(C(=O)OC(C)C)cc1F)C(C)C [Compound 524] | < 100 | 
28 | CC[C@H](C)[C@H](NC(=O)OCC(C)C)C(=O)N1C[C@H](C2CCCCC2)C[C@H]1C(=O)N[C@@H](CC(F)F)C(=O)NCCc1c(F)cc(C(=O)O)cc1F [Compound 533] | < 1 | 
29 | CC(C)COC(=O)N[C@H](C(=O)N1C[C@H](c2ccccc2)C[C@H]1C(=O)N[C@@H](CC(F)F)C(=O)NCCc1cccc(/C=C/C(=O)O)c1F)C(C)C [Compound 560] | < 1 | 
30 | CC(C)COC(=O)N[C@H](C(=O)N1C[C@H](OCc2ccccc2)CC1C(=O)N[C@@H](CC(F)F)C(=O)NCCc1c(F)cc(C(=O)O)cc1F)C(C)C (stereo partly shown) [Compound 526] | < 1 | 
31 | CC(C)COC(=O)N[C@H](C(=O)N1C[C@H](c2ccccc2)C[C@H]1C(=O)N[C@@H](CC(F)F)C(=O)NCCc1cccc(OCC(=O)O)c1)C(C)C [Compound 562] | < 100 | 
32 | CC(C)COC(=O)N[C@H](C(=O)N1C[C@H](c2ccccc2)C[C@H]1C(=O)N[C@@H](CC(F)F)C(=O)NCCc1ccc(-c2nn[nH]n2)cc1)C(C)C [Compound 518] | < 10 | 
33 | CCOC(=O)/C=C/c1cccc(CCNC(=O)[C@H](CC(F)F)NC(=O)[C@@H]2C[C@@H](c3ccccc3)CN2C(=O)[C@@H](NC(=O)OCC(C)C)C(C)C)c1 [Compound 559] | < 100 | 
34 | CC(C)COC(=O)N[C@H](C(=O)N1C[C@H](c2ccccc2)C[C@H]1C(=O)N[C@@H](CC(F)F)C(=O)NCCc1cccc(/C=C/C(=O)O)c1)C(C)C [Compound 558] | < 10 | 
35 | CC(C)COC(=O)N[C@@H](CCC(=O)O)C(=O)N[C@@H](CC1CC1)C(=O)N[C@@H](CS)C(=O)NCCc1ccccc1Cl [Compound 408] |  | IC50 ([2]; Table 4, NS3 protease domain/Pep4AK, read-out: Assay B): < 100 µM
36 | CC(C)COC(=O)NC(CCC(=O)O)C(=O)NC(CC(C)C)C(=O)NC(CS)C(=O)NCCc1ccc(S(=O)(=O)NC(=O)c2ccccc2)cc1 (stereo not shown) [Compound 162] |  | IC50 [2, 4]: < 10 µM
37 | CC(C)COC(=O)N[C@@H](CCC(=O)O)C(=O)N[C@@H](CC(C)C)C(=O)N[C@@H](CS)C(=O)NCCc1cn(CC(=O)O)c2ccccc12 [Compound 188] |  | IC50 [2, 4]: < 10 µM
38 | CC(C)CC(NC(=O)c1ccccc1-c1ccccc1C(=O)O)C(=O)NC(CC(F)F)C(=O)NCCc1cccc(NCC(=O)O)c1 (stereo not shown) [Compound 720] |  | IC50 ([2]; NS3 protease domain/NS4A cofactor peptide assay, read-out: Assay B (IC50 class)): < 100 µM
39 | CC(C)C[C@H](NC(=O)[C@H](CCC(=O)O)NC(=O)CC(C)CC(=O)O)C(=O)N[C@@H](CS)C(=O)NCCc1ccccc1Cl (stereo partly shown) [Compound 245] |  | IC50 ([2]; Table 2, NS3 protease domain/Pep4AK, read-out: Assay B): < 100 µM
40 | CC(C)COC(=O)N[C@@H](CCC(=O)O)C(=O)N[C@@H](CC(C)C)C(=O)N[C@@H](CS)C(=O)NCCc1ccsc1 [Compound 190] |  | IC50 [2, 4]: < 10 µM
